Earlier results as cited in patent US20100197944A1, “DOCETAXEL PROCESS AND POLYMORPHS” (DR. REDDY'S LABORATORIES LIMITED, priority 2007, published 2010).

Details: compared with anhydrous docetaxel

## CC(=O)O[C@@]12CO[C@@H]1C[C@H](O)[C@@]1(C)C(=O)[C@H](O)C3=C(C)[C@@H](OC(=O)[C@H](O)[C@@H](NC(=O)OC(C)(C)C)c4ccccc4)C[C@@](O)([C@@H](OC(=O)c4ccccc4)[C@H]21)C3(C)C [Docetaxel trihydrate, 4-acetoxy-2α-benzoyloxy-5β,20-epoxy-1,7β,10β-trihydroxy-9-oxo-tax-11-en-13-α-yl-(2R,3S)-3-tert-butoxycarbonylamino-2-hydroxy-3-phenylpropionate trihydrate]
  Stability relative to the anhydrous product: substantially greater stability
